According to patent US20240425502A1, “BICYCLIC HETEROAROMATIC COMPOUNDS AND THEIR USE AS PEST CONTROL AGENTS” (PI INDUSTRIES LTD., priority 2021, published 2024):

How the values were obtained:
Assay type in all cases: in vivo
Bemisia tabaci = Bemisia tabaci leaf dip test (brinjal leaves, whitefly adults); details: foliar, 72 h after release, dead and moribund combined, compared to untreated control, read-out: percent mortality
Experimental: The leaf dip method was used for testing, wherein the required quantity of the compound was weighed and dissolved in a tube containing a solvent solution. The tube was put on a vortex at 2000 rpm for 90 min for proper mixing and then the mixture was diluted with a 0.01% Triton-X solution to the desired test concentration. Brinjal leaves were dipped in the compound solution for 10 seconds, shade dried for 20 min and then placed, with the abaxial side of the leaf up, on 4 ml of a 1% agar-agar solution in respective container caps. Known numbers of freshly emerged whitefly adults were collected, using a modified aspirator, and released into a perforated container in which the cap containing the treated leaf was placed. The containers were kept in a plant growth chamber at a temperature of 25° C. and a relative humidity of 70%. Observations on dead, moribund and alive adults were recorded 72 h after the release. Percent mortality was calculated by combining dead and moribund adults and comparing the result to the one of the untreated control. The compounds 32 53 58 79 80 81 82 84 87 88 89 94 95 96 101 102 103 104 105 106 107 108 109 112 113 114 115 116 117 118 119 120 123 124 125 126 127 130 135 138 139 140 144 145 147 150 154 156 158 159 164 167 168 169 170 171 188 189 191 198 199 200 201 202 206 207 208 209 210 213 216 223 224 225 227 228 231 232 233 234 235 236 238 242 243 244 246 and 247 recorded≥70 percent mortality @ 300 PPM.

Myzus persicae = Myzus persicae leaf dip test (capsicum leaves, third instar nymphs); details: foliar, 72 h after release, dead and moribund combined, compared to untreated control, read-out: percent mortality
Nilaparvata lugens = Nilaparvata lugens seedling dip test (paddy seedlings, third instar nymphs); details: 72 h after release, dead and moribund combined, compared to untreated control, read-out: percent mortality

Measured: mortality at 300 ppm

O=c1nc2n(Cc3cnc(Cl)nc3)cccc-2c(=O)n1-c1ccc(F)c(Cl)c1 [Compound 154, 3-(3-chloro-4-fluorophenyl)-8-((2-chloropyrimidin-5-yl)methyl)pyrido[2,3-d]pyrimidine-2,4(3H,8H)-dione]
≥ 70%: all assays above

O=c1nc2n(Cc3cnc(Cl)nc3)cccc-2c(=O)n1-c1ccc(Br)cc1 [Compound 159, 3-(4-bromophenyl)-8-((2-chloropyrimidin-5-yl)methyl)pyrido[2,3-d]pyrimidine-2,4(3H,8H)-dione]
≥ 70%: all assays above

O=c1nc2n(Cc3cnc(Cl)nc3)cccc-2c(=O)n1-c1ccc2c(c1)OC(F)(F)O2 [Compound 198, 8-((2-chloropyrimidin-5-yl)methyl)-3-(2,2-difluorobenzo[d][1,3]dioxol-5-yl)pyrido[2,3-d]pyrimidine-2,4(3H,8H)-dione]
≥ 70%: all assays above

O=c1nc2n(Cc3ccc(Cl)nc3)cccc-2c(=O)n1-c1ccc2c(c1)OC(F)(F)O2 [Compound 199, 8-((6-chloropyridin-3-yl)methyl)-3-(2,2-difluorobenzo[d][1,3]dioxol-5-yl)pyrido[2,3-d]pyrimidine-2,4(3H,8H)-dione]
≥ 70%: all assays above

O=c1nc2n(Cc3cnc(Cl)nc3)cccc-2c(=O)n1-c1cc(Cl)cc(Cl)c1 [Compound 201, 8-((2-chloropyrimidin-5-yl)methyl)-3-(3,5-dichlorophenyl)pyrido[2,3-d]pyrimidine-2,4(3H,8H)-dione]
≥ 70%: all assays above

O=c1nc2n(Cc3cnc(Cl)nc3)cccc-2c(=O)n1-c1ccc(F)cc1F [Compound 207, 8-((2-chloropyrimidin-5-yl)methyl)-3-(2,4-difluorophenyl)pyrido[2,3-d]pyrimidine-2,4(3H,8H)-dione]
≥ 70%: all assays above

O=c1nc2n(Cc3cnc(Cl)nc3)cccc-2c(=O)n1-c1ccc(Cl)c(F)c1 [Compound 208, 3-(4-chloro-3-fluorophenyl)-8-((2-chloropyrimidin-5-yl)methyl)pyrido[2,3-d]pyrimidine-2,4(3H,8H)-dione]
≥ 70%: all assays above

O=c1c2cccn(Cc3cnc(Cl)nc3)c-2nc(=S)n1-c1ccc(Cl)cc1 [Compound 210, 3-(4-chlorophenyl)-8-((2-chloropyrimidin-5-yl)methyl)-2-thioxo-2,8-dihydropyrido[2,3-d]pyrimidin-4(3H)-one]
≥ 70%: all assays above

O=c1nc2n(Cc3cnc(Cl)nc3)cccc-2c(=O)n1-c1ccc(F)c(C(F)(F)F)c1 [Compound 213, 8-((2-chloropyrimidin-5-yl)methyl)-3-(4-fluoro-3-(trifluoromethyl)phenyl)pyrido[2,3-d]pyrimidine-2,4(3H,8H)-dione]
≥ 70%: all assays above

O=c1nc2n(Cc3cnc(Cl)nc3)cccc-2c(=O)n1-c1ccc(OCC(F)(F)F)cc1 [Compound 216, 8-((2-chloropyrimidin-5-yl)methyl)-3-(4-(2,2,2-trifluoroethoxy)phenyl)pyrido[2,3-d]pyrimidine-2,4(3H,8H)-dione]
≥ 70%: all assays above

O=c1nc2n(Cc3ccc(Cl)nc3)cccc-2c(=O)n1-c1ccc(OCC(F)(F)F)cc1 [Compound 223, 8-((6-chloropyridin-3-yl)methyl)-3-(4-(2,2,2-trifluoroethoxy)phenyl)pyrido[2,3-d]pyrimidine-2,4(3H,8H)-dione]
≥ 70%: all assays above
